Read-outs that look alike come from different tables or passages of the source.
Tests used:
Integrin αvβ3 [1] = conditions: read-out: IC50 value by fluorescence polarization; cited from earlier work
Integrin αvβ3 [2] = conditions: read-out: IC50 value by cell adhesion; cited from earlier work
αvβ3 [3] = conditions: read-out: IC50 value; published pentapeptides; cited from earlier work
αvβ3 [4] = conditions: read-out: IC50 value; published pentapeptides; cited from earlier work; remark: listed apart in the source
MMP2 = target: T1, MMP2 (Homo sapiens, UniProt P08253); assay: Ilomastat inhibition of MMP2 activity; format: biochemical; conditions: 910 μM ilomastat, MMP2 1.4 μg, 37 °C, 24 hours, HPLC of fragmented peptide
T1 sequence (P08253 110-660): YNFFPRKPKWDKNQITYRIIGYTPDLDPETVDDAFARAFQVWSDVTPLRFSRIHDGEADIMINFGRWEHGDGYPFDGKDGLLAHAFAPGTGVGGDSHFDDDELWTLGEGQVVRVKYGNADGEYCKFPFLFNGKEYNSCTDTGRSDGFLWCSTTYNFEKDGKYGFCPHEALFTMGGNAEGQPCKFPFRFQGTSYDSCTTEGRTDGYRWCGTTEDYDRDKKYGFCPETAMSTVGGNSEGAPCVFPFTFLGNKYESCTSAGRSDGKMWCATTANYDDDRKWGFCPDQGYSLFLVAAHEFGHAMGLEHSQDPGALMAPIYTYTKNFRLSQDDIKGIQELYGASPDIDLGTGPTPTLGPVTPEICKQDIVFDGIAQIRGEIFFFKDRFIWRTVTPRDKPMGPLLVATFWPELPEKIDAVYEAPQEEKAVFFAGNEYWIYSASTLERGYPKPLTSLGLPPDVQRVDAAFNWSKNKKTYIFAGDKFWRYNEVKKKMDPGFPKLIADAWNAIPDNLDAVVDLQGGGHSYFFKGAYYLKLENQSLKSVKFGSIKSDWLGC

For c(ERGDf) (head to tail), the IC50 (Integrin αvβ3 [1]) is given as 280 ± 4 nM and the IC50 (Integrin αvβ3 [2]) is given as 3200 ± 160 nM.
In the case of c(RGDfK), the IC50 (αvβ3 [3]) is listed as 4.2 nM.
For c(rGDFV) (head to tail), the IC50 (αvβ3 [4]) is listed as 25000 ± 4000 nM.
With `CNC(=O)[C@H](Cc1c[nH]c2ccccc12)NC(=O)[C@@H](CC(=O)NO)CC(C)C` [ilomastat, N-[(2R)-2-(hydroxamidocarbonylmethyl)-4-methylpentanoyl]-L-tryptophan methylamide] the “inhibition of MMP2 cleavage of [64Cu]c(RGDfE)K(DOTA)PLGVRY” value (MMP2) was “inhibition of the peptide cleavage”.
